Measured values: patent publication US9163018B2, “Method of treatment of age-related macular degeneration (AMD)” (Prana Biotechnology Limited, priority 2006, dated 2015)
Where two headings read alike, the source gives them in different places.

What was measured:
[1] = Mice plasma concentration after oral dose; format: in vivo; conditions: for Mice plasma concentration: 30 min to 4 h after single or repeat oral dose of 30 mg/kg
[2] = tested on: primary cortical neuronal cultured cells; assay: Test compound cytotoxicity, MTS assay, primary cortical neuronal cultures; format: cell-based, mouse; conditions: for Cytotox (% viable) Neuronal cells at 1 μM: 1 μM test compound; for Cytotox (% viable) Neuronal cells at 10 μM: 10 μM test compound
In short: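 Primary cortical neurons were cultured five days in Neurobasal/B27, then exposed on day six to compounds (from 2.5 mM DMSO stocks) in medium minus antioxidants, in triplicate for 4 days at 37° C. Viability was measured by MTS, 2 h at 37° C, absorbance at 560 nm.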

[3] = Toxicity, visual observations in mice; conditions: 30 mg/kg; duration and visual observations
[4] = target: T1, Abeta:Zn (25:50 μM) Synthetic Aggregations (Homo sapiens, UniProt P05067); assay: Disaggregation of Abeta:Zn synthetic aggregates (ThT fluorescence); format: biochemical; conditions: for Disaggregation % Aggregate reduction at 5 μM: 5 μM test compound
T1 construct: PB Compound Mediated Dissolution of Aggregated Abeta 1-42; purchased Keck Laboratory, Yale University School of Medicine
T1 sequence (P05067 672-713 limits assumed): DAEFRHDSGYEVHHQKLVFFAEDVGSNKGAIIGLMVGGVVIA
Experimental: PB Compound Mediated Dissolution of Aggregated Abeta 1-42
Abeta1-42, is available from the Keck Laboratory, Yale University School of Medicine. PBS (pH 6.6): Sigma Cat# D-8662. Zn(ZnCl2): BDH Cat#100884E. (Dissolved in water in 1 mM concentration) DMSO: Ajax Cat#2225. Thioflavin T: Sigma Cat# T-3516. (Dissolved in water in 1 mM concentration)
By way of example of an amyloid composition, Abeta is dissolved in distilled water and peptide concentration is assessed by measured absorption at 214 nm in UV spectrometer. An aggregation reactive mixture (per one concentration of one testing compound) is set us as follows: Abeta: 25 μM, ZnCl2 50 μM, ThT 50 μM, PBS to make up to 500 μl. The tube is wrapped with foil and incubated at 37 degrees by rotation for 24 hours. A serial dilution of each test compound is made up in DMSO, for example: 100 μM, 500 μM, 1000 μM, 2500 μM and 5000 μM. The final concentrations are 1, 5, 10, 25 and 50 μM, 5 μl of each of these compounds is placed in a centrifuge tube and 5 μl of DMSO is added to both negative and positive control tubes. 495 μl of aggregates (after 24 hours incubation) is added to the centrifuge tube. The negative control is PBS plus ZnCl2 and ThT and DMSO. The positive control is aggregates plus DMSO. The tubes are incubated at 37 degrees for further 2 hours with rotation. Samples are measured for ThT fluorescence using an LS55 (Perkin Elmer) fluorimeter in a cuvette (500 μl volume). The excitation wavelength is 450 nm and the emission wavelength is 480 nm. Data are analyzed using graph pad prism program. The tested compounds included so called “PB” compounds.

[5] = target: T2, Aβ 1-42 (Homo sapiens, UniProt P05067); assay: Fluorometric H2O2 assay (inhibition of Abeta H2O2 production); format: biochemical
T2 construct: The reaction solutions contained Aβ 1-42 at concentrations
T2 sequence (P05067 672-713 limits assumed): as above
In short: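 Copper-dependent Aβ H2O2 production measured fluorometrically with deacetylated dichlorofluorescein plus HRP in PBS, pH 7.4. Incubation 60 min at 37 C, test compound included in wells. H2O2 quantified against H2O2 standards.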

[6] = tested on: Abeta in extract of post-mortem human AD brain tissue; assay: BAS: human brain amyloid solubilization assay; format: biochemical
Experimental: Assay 5. Human Brain Amyloid Solubilization Assay
This assay was performed in order to assess the ability of a test compound to mobilise Aβ, as an example form of amyloid, from the insoluble to the soluble phase of an extract of tissue from post mortem human AD brain.
Up to 0.5 g of plaque-bearing cortex without meninges was homogenized using a DIAX 900 homogenizer (Hendolph and Co, Kelheim, Germany) or other suitable device for three 30-second periods at full speed in 2 ml of ice-cold phosphate-buffered saline, pH 7.4. To obtain the phosphate-buffered saline-extractable fraction, the homogenate was centrifuged at 100,000×g for 30 min and the supernatant removed. Alternatively, the tissue was freeze dried then pulverized to form a powder which was then weighed out into aliquots for extraction as above. Supernatant, either freeze-dried and resuspended or in unconcentrated form, was dissolved in 200 μl of Tris-Tricine sodium dodecyl sulfate (SDS) sample buffer pH 8.3 containing 8% SDS, 10% 2-mercaptoethanol. Aliquots (10 μl) were then boiled for 10 minutes before SDS-polyacrylamide gel electrophoresis. The insoluble fraction of the cortical samples was obtained by resuspending the initial pelleted sample in 1 ml of phosphate-buffered saline, A 50-μl aliquot of this suspension was then boiled in […] of sample buffer as above.
Tris-Tricine polyacrylamide gel electrophoresis was performed by loading appropriately diluted samples on to 10% to 20% gradient gels (Novex, San Diego, Calif.) followed by transfer on to 0.2-μm nitrocellulose membrane (Bio-Rad, Hercules, Calif.). Aβ was detected by using monoclonal antibody W02, which detects residues 5 through 8, […] (or another suitable antibody) in conjunction with horseradish peroxidase-conjugated rabbit anti-mouse IgG (Dako, Denmark), and visualized by using enhanced chemiluminescence (eg ECL; Amersham Life Science, Buckinghamshire, UK). Each gel included three lanes containing 0.5, 1, and 2 ng of synthetic Aβ40 (Keck Laboratory, Yale University, New Haven, Conn.) as reference standards.
Blot films were scanned by using a suitable imaging system such as the UVP gel documentation system, and densitometry performed using suitable software, eg UVP Labworks. The dynamic range of the film/scanner was determined by using a step tablet (No. 911ST600, Kodak, Rochester N.Y.), a calibrated film exposed by the manufacturer to provided steps of known increasing intensity. The quantifiable range of signal intensity for densitometric analysis of the mono- and dimeric Aβ bands was based on the comparison with a curve obtained by scanning and densitometry of the step tablet.
All samples were analyzed at least twice, and gel loadings and dilutions were adjusted to fit within the quantifiable region of the standard curve. The proportion of ‘soluble’ to ‘insoluble’ Aβ may be used to determine the efficiency of extraction of a test compound compared with the efficiency of a known compound. The insoluble Aβ being comprised of the pelletable fraction derived from the insoluble amyloid plaque from the above cortical samples and the soluble fraction comprising monomeric and/or oligomeric soluble Aβ.

[7] = tested on: M17 human neuroblastoma cells; assay: Cytotoxicity, M17 human neuroblastoma cells; format: cell-based; conditions: for Cytotox (% viable) M17 cells at 1 μM: 1 μM test compound; for Cytotox (% viable) M17 cells at 10 μM: 10 μM test compound
Experimental: Assay 3. MTS Assay for Cell Viability
Cell viability is determined using the MTS assay. Culture medium is replaced with fresh neurobasal medium plus B27 supplements minus antioxidants. 1/10th volume MTS solution (Cell Titre 96 Aqueous One, Promega Corporation) and incubated at 37° C., 2 hrs. 200 microliter aliquots are measured with a spectrophotometer at 560 nm.

[8] = concentration required to inhibit 50% of Abeta H2O2 production, read-out: H2O2 IC50
[9] = max effect across the concentration range, referenced to baseline PBS

SMILES | Mice plasma concentration [1] | Cytotox (% viable) Neuronal cells at 1 μM [2] [%] | Cytotox (% viable) Neuronal cells at 10 μM [2] [%] | Toxicity at 30 mg/kg [3] | Disaggregation % Aggregate reduction at 5 μM [4] [%] | EC50 ([4]; Abeta:Zn 25:50 μM aggregates) [nM] | IC50 [5, 8] [nM] | BAS max effect [6, 9] [%] | Cytotox (% viable) M17 cells at 1 μM [7] [%] | Cytotox (% viable) M17 cells at 10 μM [7] [%] | IC50 [5] [nM] | BAS max effect [6] | Disaggregation EC50 ([4]; Abeta:Zn 25:50 μM aggregates) | Mice plasma concentration at 120 mg/kg ([1]; 120 mg/kg) [ng/mL]
O=c1c2c(Cl)cc(Cl)c(O)c2ncn1CCc1ccccn1 [PB 1091] | Up to 59 ng/ mL ng/mL | 100 | 92 | 10 days, none | 23.4 | > 20000 |  |  |  |  |  |  |  | 
CN(C)Cc1cnc2c(Cl)cc(Cl)c(O)c2n1.Cl [PB 1066] | Up to 1000 ng/mL in mice | 92 | 95 |  | 35 | > 50000 | > 10000 |  |  |  |  |  |  | 
O=c1c(-c2ccc(Cl)cc2)cnc2c(O)c(I)ccn12 [PB 1063] | Up to 450 ng/ mL in mice ng/mL | 41 | 33 | 10 days, mild toxic signs | 40.5 | 19700 |  |  |  |  |  |  |  | 
Oc1c(Cl)cc(Cl)c2cccnc12 [PB 45] |  | 98 | 75 |  | 36.1 | 8500 | 400 | 387 |  |  |  |  |  | 
COc1ccc(-n2cnc3c(O)c(Cl)cc(Cl)c3c2=O)cn1 [PB 1093] | Up to 80 ng/ mL ng/mL | 122 | 93 | 10 days, none | 16 | > 20000 |  |  |  |  |  |  |  | 
CCCCc1cnc2c(O)cccn2c1=O [PB 1144] |  |  |  | 10 days, none | 15.5 | 9100 | 320 |  | 73.6 | 37 |  |  |  | 
CCn1cnc2c(O)c(I)ccc2c1=O [PB 1123] |  |  |  | 10 days, none | 25 | 910 | 290 |  |  |  |  |  |  | 
Oc1cccc2cccnc12 [PB 42] |  | 93 | 36 |  |  |  |  |  |  |  | 700 | BAS: 227% (1 μM- 100 μM) | Inactive | 
Br.CC(C)n1cnc2c(O)c(Cl)cc(Cl)c2c1=O [PB 1108] | Up to 383 ng/ mL ng/mL | 104 | 71 | 10 days, none | 46.5 | > 20000 |  |  | 94.3 | 74.5 |  |  |  | 
Cc1ccccc1-c1cc(I)c(O)c2ncccc12 [PB 861] |  | 99 | 38 |  | 31.4 |  | < 910 | 439 |  |  |  |  |  | 
O=c1c2ccc(I)c(O)c2ncn1Cc1ccccn1 [PB 1122] | Up to 1538 ng/ mL ng/mL |  |  | 10 days, none | 62.4 | 660 | 520 |  | 97.5 | 79.5 |  |  |  | 
Cc1ccc(-n2cnc3c(O)c(Cl)cc(Cl)c3c2=O)nc1 [PB 1089] | Up to 39 ng/ mL ng/mL | 96 | 83 | 10 days, none | 16.4 | > 20000 |  |  |  |  |  |  |  | 
CCc1c(O)c(O)cc[n+]1CC.[Cl-] [PB 1270] | ≤ 493.7 ng/mL |  |  | 10 days, none |  |  |  |  | 102.8 | 108.3 |  |  |  | ≤ 4455
CCCn1cnc2c(O)c(I)ccc2c1=O [PB 1119] | Up to 1096 ng/ mL ng/mL |  |  | 10 days, none | 51.5 | 2720 | 280 |  |  |  |  |  |  | 
Oc1c(Br)cc(Br)c2cccnc12 [PB 47] |  | 100 | 94 |  | 50 | 5000 | 500 | 412 |  |  |  |  |  | 
CCn1nccc1-n1cnc2c(O)c(Cl)cc(Cl)c2c1=O [PB 1088] | Up to 3896 ng/ mL ng/mL | 102 | 94 | 10 days, none | 16.4 | > 20000 |  |  |  |  |  |  |  | 
Oc1cccc2ccc(-c3ccccn3)nc12 [PB 1006] |  | 107 | 75 |  | 49.5 | 5270 | 530 | 463 |  |  |  |  |  | 
CN(C)Cc1ccc2c(Cl)cc(I)c(O)c2n1 [PB 1177] |  |  |  | 1 day, 3/4 deaths | 79 | 2400 | 290 |  | 97.9 | 24.4 |  |  |  | 
NCc1ccc2cccc(O)c2n1 [PB 968] |  | 101 | 97 |  | 31.6 | 16300 | 260 | 390 |  |  |  |  |  | 
